Key:
Swiss mice = test: Mouse Matrigel plug angiogenesis assay; format: in vivo; conditions: endothelial-cell infiltration, n = 5 mice
Method: Figure 6 Inhibition of in vitro and in vivo angiogenesis by HB-19. (A) HB-19 inhibits proliferation of HUVECs. Twenty-four hours after seeding HUVECs in 2% FBS, cells were stimulated by 0.25 nM VEGF165, in the absence or presence of 1 µM HB-19 or 0.1 µM anti-nucleolin mAb MS-3 as indicated. After 72 h, cell number was determined by crystal violet staining. The data are reported as the mean of triplicate samples. (B) HB-19 inhibits migration of HUVECs. Cell migration was studied using a modified Boyden chamber. Cells were incubated (4 h at 37°C) with VEGF165, HB-19, or anti-nucleolin mAb MS-3 as above. Cells that migrated through the pore to the lower filter surface were counted and are shown as number per microscopic field at ×100 magnification. The data are the mean of three independent high-power fields/well performed in duplicate in two independent experiments. […] Aortic endothelial (ABAE) cells in the absence or presence of 3 nM PTN, 0.5 nM VEGF165, and 3 nM FGF-2 were seeded on a three-dimensional collagen gel in complete medium. […] Tubular network structures were quantified using phase contrast microscopy (×100). […] Quantification of endothelial cell invasion into the Matrigel was determined and is expressed as a mean of five fields per section from 3 Matrigel-plug sections per mouse. The results are expressed as the mean of five mice per group. […]

HUVECs = test: HB-19 entry in HUVECs, confocal microscopy; format: cell-based, human; conditions: 5 µM HB-19/Btn, 1 hour, 37°C
Method: Figure 3 Specific binding and entry of HB-19 in endothelial cells. (A) HB-19/Btn forms a stable complex with nucleolin expressed on the surface of HUVECs. Cells were incubated (45 min, 20°C) with 0, 1, 2, 4, 8 and 12 µM of HB-19/Btn before preparation of surface/cytoplasmic and nuclear extracts and recovery of surface nucleolin from the surface/cytoplasmic extracts as in Figure 2A. Material extracted from 2×10^7 and 2×10^6 cells was analyzed in panels Surface and Surface/Cytoplasm or Nucleus, respectively. Immunoblotting was with the anti-nucleolin mAb D3. (B) The specific binding of HB-19/Btn to HUVECs. The binding of 1 µM HB-19/Btn was studied at 4 °C by FACScan analysis. To show the specificity of binding, the reaction was carried out in the absence or presence of 50 µM HB-19, F3, or 9Arg peptides. The ordinate gives the relative cell number, whereas the abscissa gives the relative fluorescence intensity. (C) HB-19 entry in HUVECs. Cells were incubated with 5 µM of HB-19/Btn (1 hour, 37°C) before fixation in PFA (for surface binding) or PFA-Triton (for entry), respectively. Cells were then successively incubated with rabbit anti-biotin antibodies and goat Texas Red-conjugated anti-rabbit IgG, and processed for confocal microscopy. The scans of cells toward the middle cell layer are presented (with the DAPI stained nuclei). […]

tumor cells = test: Apoptosis in HB-19 treated cells; format: cell-based; conditions: not shown
nucleolin = conditions: cited from earlier work
From the text: HB-19 presents pentavalently the tripeptide Kψ(CH2N)PR in which the reduced peptide bond provides high stability against serum proteases (Figure 1). HB-19 forms a stable complex with the cell-surface expressed nucleolin and is internalized by an active process. This le ... || The interaction of HB-19 with surface nucleolin was investigated using human breast cancer MDA-MB-231 tumor cells and human umbilical vein endothelial cells (HUVECs). […] Similarly, HB-19/Btn binds and forms a stable complex with surface nucleolin in a dose-dependent manner in both types of cell ... || Previously, guanosine-rich phosphodiester oligonucleotides (referred to as GROs) and endostatin have been reported to exert antitumoral and antiangiogenic activity, respectively, through interaction with surface nucleolin [21], [41], [42]. […] At 20°C, GRO ... || (+ 1 further places)

Substance: pseudo-tripeptide Lysψ(CH2N)-Pro-Arg coupled to a template (H2NLys-Lys-Lys-Gly-Pro-Lys-Glu-Lys-AhxCONH2) [HB-19, pseudopeptide presenting pentavalently the pseudo-tripeptide Lysψ(CH2N)-Pro-Arg coupled to a template]
- inhibition of PTN induced angiogenesis (Swiss mice; 1 µM HB-19, 5 nM PTN): significantly inhibited the ex vivo angiogenesis
- inhibition of FGF-2 induced angiogenesis (Swiss mice; 1 µM HB-19, 10 nM FGF-2): significantly inhibited the ex vivo angiogenesis
- internalization and subcellular localization (HUVECs): internalized and is concentrated in the cytoplasm without translocation into the nucleus
- apoptosis (tumor cells): not observed
- binding site on nucleolin (nucleolin): binds the C-terminal RGG domain of cell-surface expressed nucleolin
- heparan sulfate proteoglycan requirement of binding to surface nucleolin (nucleolin): endostatin but not HB-19 binding to surface nucleolin requires heparan sulfate proteoglycans
- reversibility of binding to surface nucleolin (nucleolin; physiological conditions): bind surface nucleolin in an irreversible manner

— paper PMC2424174, “Suppression of Tumor Growth and Angiogenesis by a Specific Antagonist of the Cell-Surface Expressed Nucleolin” (PLoS ONE, 2008)
